The values that follow come from paper PMC4663080 (Journal of enzyme inhibition and medicinal chemistry, 2010).

Test [1] concerns the target T1, Electrophorus electricus AChE (Electrophorus electricus, UniProt O42275). Format: biochemical.
In test [2] the target is T1, Electrophorus electricus AChE. The test can be described thus: Steady-state enzyme kinetics of AChE in the presence of nantenine. The format is biochemical.
In test [3] the test system is AChE. The conditions noted are these: rat synaptosomal membrane as enzyme source; cited from earlier work.
Test [4] has as its target AChE (Electrophorus electricus, UniProt O42275). The test can be described thus: TLC anticholinesterase bioautographic assay. The following applies: compared with galanthamine (1). Format: biochemical.

T1 sequence (O42275 24-633): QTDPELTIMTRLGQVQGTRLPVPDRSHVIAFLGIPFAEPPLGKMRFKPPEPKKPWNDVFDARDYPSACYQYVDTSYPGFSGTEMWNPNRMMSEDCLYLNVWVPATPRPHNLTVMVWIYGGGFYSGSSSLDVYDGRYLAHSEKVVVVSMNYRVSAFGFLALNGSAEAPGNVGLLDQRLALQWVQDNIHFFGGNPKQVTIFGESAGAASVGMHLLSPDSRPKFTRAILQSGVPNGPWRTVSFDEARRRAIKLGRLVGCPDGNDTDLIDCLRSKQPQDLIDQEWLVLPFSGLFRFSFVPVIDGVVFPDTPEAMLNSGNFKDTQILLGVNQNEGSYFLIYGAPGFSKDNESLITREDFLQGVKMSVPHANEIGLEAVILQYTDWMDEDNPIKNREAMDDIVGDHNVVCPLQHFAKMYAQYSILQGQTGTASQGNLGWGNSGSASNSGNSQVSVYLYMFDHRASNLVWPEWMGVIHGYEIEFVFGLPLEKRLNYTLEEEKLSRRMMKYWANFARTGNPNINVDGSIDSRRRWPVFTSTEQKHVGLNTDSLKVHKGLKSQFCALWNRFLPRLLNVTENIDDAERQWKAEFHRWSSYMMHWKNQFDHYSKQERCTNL
Sequence of AChE (Electrophorus electricus, UniProt O42275) (O42275 24-633): as above

Regarding `COc1cc2c(c(-c3ccc4c(c3)OCO4)c1OC)CN(C)CC2` [Compound 15a, 8-(benzo[d][1,3]dioxol-5-yl)-6,7-dimethoxy-2-methyl-1,2,3,4-tetrahydroisoquinoline], in test [1], the “fold less active than nantenine (AChE inhibition)” value was “approximately two-fold”.
On the same count and under the same terms, next, `COc1cc2c(c(-c3ccc4c(c3)OCO4)c1OC)C(C)N(C)CC2` (stereo not drawn) [Compound 15b, 8-(benzo[d][1,3]dioxol-5-yl)-6,7-dimethoxy-1,2-dimethyl-1,2,3,4-tetrahydroisoquinoline]: “approximately two-fold”.
As to `COc1cc2c3c(c1OC)-c1cc4c(cc1CC3N(C)CC2)OCO4` (stereo not drawn) [Nantenine (8), nantenine], in test [2], the Ki came out at 18.7 µM. Also, the mode of inhibition entry in test [2] (Lineweaver-Burk plot) is listed as “mixed inhibition”. Also, the “activity in AChE assay” value with AChE [3] was “inactive”. Besides, the “activity in TLC anticholinesterase bioautographic assay” value on AChE [4] is “showed activity”.

A word on the Ki: it is the dissociation constant of the complex between target and ligand, obtained from inhibition or displacement.
